Where two headings read alike, the source gives them in different places.
Experiments:
[1] = target: T1, mutated CK2α’ ^C336S subunit (Homo sapiens, UniProt P19784, C336S); assay: Capillary electrophoresis (CE) assay, enzyme inhibition of the mutated CK2α′ C336S subunit; format: biochemical; conditions: c=10 μM; CE assay; mean±SD of three experiments; n.s.=not significant; read-out: Inhibition (%) of CK2α’ ^C336S
T1 construct: His6 (N); made in house
T1 sequence (P19784 1-350 C336S): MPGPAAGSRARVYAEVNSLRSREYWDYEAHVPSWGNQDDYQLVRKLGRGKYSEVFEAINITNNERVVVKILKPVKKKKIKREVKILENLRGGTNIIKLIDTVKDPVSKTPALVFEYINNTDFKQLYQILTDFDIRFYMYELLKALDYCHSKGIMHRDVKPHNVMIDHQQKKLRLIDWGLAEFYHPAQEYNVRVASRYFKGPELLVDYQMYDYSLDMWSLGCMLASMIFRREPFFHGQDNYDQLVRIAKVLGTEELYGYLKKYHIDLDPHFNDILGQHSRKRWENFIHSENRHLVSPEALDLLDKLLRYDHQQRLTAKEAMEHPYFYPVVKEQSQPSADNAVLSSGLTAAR
Excerpt: (§1) In this assay, the decapeptide […], a known class I substrate suitable for assaying the kinase activity of both the CK2 holoenzyme and the catalytically active CK2 subunits,50, 58 was reacted with ATP in the presence of enzyme, which transfers a phosphate group to Ser7 of the decapeptide. Due to the additional negative charge of the phosphate group, the decapeptide and the phosphorylated decapeptide can be separated by CE. […] The data on the inhibition of the kinase activities of CK2α2β2, CK2α subunit and mutated CK2α’ ^C336S subunit are summarized in Table 1.
(§2) Enzymatic activities with or without inhibitors were determined for the holoenzyme (CK2α2β2), the CK2α subunit, and the mutated CK2α′ ^C336S subunit by a capillary electrophoresis assay as described before.59 For this purpose, CK2α as well as (CK2α2β2) holoenzyme were purified after recombinant expression in E. coli BL21(DE3) and purified according the protocol of Grankowski et al.62 The mutated CK2α′ ^C336S subunit was purified by Ni‐NTA affinity chromatography using an N‐terminally attached His6 tag. Successful purification was controlled by SDS‐PAGE. Enzymatic activity was determined in the presence of 60 μM ATP and 114 μM of the substrate peptide […]. For both CK2α subunits an assay buffer containing 100 mM NaCl instead of 60 mM NaCl as for the holoenzyme, and 20 mM MgCl2 instead of 10 mM MgCl2 was applied. For the holoenzyme, 1 μg was added, whereas for CK2α and the mutated CK2α′ ^C336S subunit 0.25 μg was added each. For each compound inhibition was determined three times independently at an initial concentration of 10 μM and the mean value and the standard deviation (SD) were calculated.

[2] = system: monomeric CK2α; parameters: method as in PMID 18553057; conditions: read-out: IC50, inhibition of the catalytic activity of monomeric CK2α; cited from earlier work
[3] = target: T2, holoenzyme CK2α2β2 (Homo sapiens, UniProt P68400); assay: Capillary electrophoresis (CE) assay, enzyme inhibition of the holoenzyme; format: biochemical; conditions: read-out: Inhibition (%) of CK2α2β2
T2 construct: made in house; host or cells: E. coli BL21(DE3)
Experimental: In this assay, the decapeptide […], a known class I substrate suitable for assaying the kinase activity of both the CK2 holoenzyme and the catalytically active CK2 subunits,50, 58 was reacted with ATP in the presence of enzyme, which transfers a phosphate group to Ser7 of the decapeptide. Due to the additional negative charge of the phosphate group, the decapeptide and the phosphorylated decapeptide can be separated by CE.
Enzymatic activities with or without inhibitors were determined for the holoenzyme (CK2α2β2), the CK2α subunit, and the mutated CK2α′ ^C336S subunit by a capillary electrophoresis assay as described before.59 For this purpose, CK2α as well as (CK2α2β2) holoenzyme were purified after recombinant expression in E. coli BL21(DE3) and purified according the protocol of Grankowski et al.62 The mutated CK2α′ ^C336S subunit was purified by Ni‐NTA affinity chromatography using an N‐terminally attached His6 tag. […] For both CK2α subunits an assay buffer containing 100 mM NaCl instead of 60 mM NaCl as for the holoenzyme, and 20 mM MgCl2 instead of 10 mM MgCl2 was applied. For the holoenzyme, 1 μg was added, whereas for CK2α and the mutated CK2α′ ^C336S subunit 0.25 μg was added each. For each compound inhibition was determined three times independently at an initial concentration of 10 μM and the mean value and the standard deviation (SD) were calculated.

[4] = system: CK2α/CK2β interaction; parameters: method as in PMID 18553057; conditions: read-out: IC50, inhibition of CK2α/CK2β interaction (PPII); cited from earlier work
[5] = target: T3, CK2α subunit (Homo sapiens, UniProt P68400); assay: Capillary electrophoresis (CE) assay, enzyme inhibition of the CK2α subunit; format: biochemical; conditions: for inhibition at 10 µM: read-out: Inhibition (%) of CK2α
T3 construct: made in house; host or cells: E. coli BL21(DE3)
Excerpt: as §1, §2

[6] = target: T4, CK2α/CK2β interaction (CK2α^1−335 / fluorescently labeled CK2β^1−193) (Homo sapiens, UniProt P68400)
T4 sequence (P68400 1-335): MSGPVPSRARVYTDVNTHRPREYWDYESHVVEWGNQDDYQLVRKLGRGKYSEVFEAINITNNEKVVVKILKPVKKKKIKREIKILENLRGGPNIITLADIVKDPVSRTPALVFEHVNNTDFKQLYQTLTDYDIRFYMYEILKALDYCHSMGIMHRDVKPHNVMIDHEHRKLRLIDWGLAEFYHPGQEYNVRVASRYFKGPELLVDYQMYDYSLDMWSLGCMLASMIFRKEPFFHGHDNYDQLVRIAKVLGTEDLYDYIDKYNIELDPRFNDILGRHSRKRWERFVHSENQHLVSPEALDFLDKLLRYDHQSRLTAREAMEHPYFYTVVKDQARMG

[7] = system: CK2; parameters: method as in PMID 29759799; conditions: cited from earlier work
[8] = c=10 μM, CE assay, mean±SD of three experiments, n.s.=not significant

T2 sequence (P68400 whole entry): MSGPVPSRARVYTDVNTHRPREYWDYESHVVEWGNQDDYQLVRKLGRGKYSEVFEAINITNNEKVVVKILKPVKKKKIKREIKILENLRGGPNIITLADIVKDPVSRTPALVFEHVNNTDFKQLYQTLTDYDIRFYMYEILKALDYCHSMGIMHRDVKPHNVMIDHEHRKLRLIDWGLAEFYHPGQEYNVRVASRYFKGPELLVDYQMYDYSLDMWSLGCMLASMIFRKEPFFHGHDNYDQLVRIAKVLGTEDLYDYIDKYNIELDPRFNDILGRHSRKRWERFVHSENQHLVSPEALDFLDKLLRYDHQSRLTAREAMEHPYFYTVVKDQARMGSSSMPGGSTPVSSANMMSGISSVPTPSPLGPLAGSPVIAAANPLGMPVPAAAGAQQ
T3 sequence (P68400 whole entry): as above

SMILES | inhibition at 10 µM [1] | IC50 [2] | inhibition at 10 µM [3] | IC50 [4] | inhibition at 10 µM [5] | inhibition at 10 µM [3, 8] | Ki [6] | Inhibition (%) of CK2α [5, 8] | Inhibition of CK2 activity [7] | inhibition at 10 µM [5, 8]
COc1cc([C@H]2c3c([nH]c4ccccc34)[C@@H](C(=O)N3C(=O)OC[C@@H]3Cc3ccccc3)[C@H]3C(=O)OC(=O)[C@@H]23)cc(OC)c1OC [(+)‐3 a, (3aR,4S,10S,10aS)‐4‐{[(S)‐4‐Benzyl‐2‐oxo‐1,3‐oxazolidin‐3‐yl]carbonyl}‐10‐(3,4,5‐trimethoxyphenyl)‐4,5,10,10a‐tetrahydrofuro[3,4‐b]carbazole‐1,3(3aH)‐dione] | 85 ± 13% | 20 µM | 84 ± 5% | […] | 76 ± 4% | – | – | – | – | –
COc1cc([C@@H]2c3c([nH]c4ccccc34)[C@H](C(=O)N3C(=O)OC[C@H]3Cc3ccccc3)[C@@H]3C(=O)N(C)C(=O)[C@H]23)cc(OC)c1OC [(−)‐10 a, (3aR,4R,10R,10aR)‐4‐{[(R)‐4‐Benzyl‐2‐oxo‐1,3‐oxazolidin‐3‐yl]carbonyl}‐2‐methyl‐10‐(3,4,5‐trimethoxyphenyl)‐4,5,10,10a‐tetrahydropyrrolo[3,4‐b]carbazole‐1,3(2H,3aH)‐dione] | 30 ± 23% | – | – | – | – | 29 ± 14% | 8.5 ± 2.9 µM | n.s. | – | –
NCc1cc(Cl)cc(-c2cccc3[nH]ccc23)c1 [CAM187] | – | – | – | – | – | – | – | – | did not significantly inhibit CK2 activity | –
COc1cc([C@H]2c3c([nH]c4ccccc34)[C@@H](C(=O)N3C(=O)OC[C@@H]3Cc3ccccc3)[C@H]3C(=O)N(C)C(=O)[C@@H]23)cc(OC)c1OC [(+)‐10 a] | 53 ± 15% | – | – | – | – | 26 ± 7% | 2.8 ± 0.9 µM | – | – | 41 ± 11%
